Data published in the NIST ThermoML archive (doi:10.1016/j.tca.2014.09.011).
Values joined by “and” are separate entries in the source; they are usually repeats but may differ in a detail not shown here. Equal entries are not always repeated. ± gives the expanded uncertainty stated by the source.

Conditions: Liquid, Rate of evaporation

CCCCO [butan-1-ol]
Conditions	vapor or sublimation pressure
301.02 K	1.09 ± 0.11 kPa
305.59 K	1.46 ± 0.15 kPa
310.16 K	1.92 ± 0.19 kPa
310.26 K	1.96 ± 0.2 kPa
310.29 K	1.9 ± 0.2 kPa and 1.91 ± 0.19 kPa
314.75 K	2.67 ± 0.27 kPa
314.76 K	2.6 ± 0.3 kPa and 2.5 ± 0.3 kPa
314.81 K	2.61 ± 0.26 kPa
321.34 K	4.15 ± 0.42 kPa and 4.19 ± 0.42 kPa
322.07 K	4.33 ± 0.43 kPa
322.58 K	4.48 ± 0.45 kPa
322.69 K	4.52 ± 0.45 kPa
323.09 K	4.54 ± 0.45 kPa
323.14 K	4.54 ± 0.45 kPa
323.5 K	4.62 ± 0.46 kPa
323.67 K	4.69 ± 0.47 kPa
323.78 K	4.75 ± 0.48 kPa
323.9 K	4.74 ± 0.47 kPa
324.18 K	4.79 ± 0.48 kPa
324.28 K	4.85 ± 0.49 kPa
324.57 K	4.91 ± 0.49 kPa
324.59 K	4.87 ± 0.49 kPa
324.8 K	4.95 ± 0.5 kPa
324.91 K	4.98 ± 0.5 kPa
333.51 K	8.09 ± 0.81 kPa
334.32 K	8.38 ± 0.84 kPa
341.78 K	12.79 ± 1.3 kPa
343.2 K	13.52 ± 1.4 kPa
343.36 K	13.71 ± 1.4 kPa
343.39 K	14.44 ± 1.4 kPa
352.7 K	21.03 ± 2.1 kPa
360.58 K	32.09 ± 3.2 kPa

CCO [ethanol]
Conditions	vapor or sublimation pressure [kPa]
301.1 K	9.07 ± 0.91
305.47 K	10.94 ± 1.1
305.54 K	11.69 ± 1.2
305.63 K	11.08 ± 1.1
305.68 K	11.85 ± 1.2

CCCCCCCCO [octan-1-ol]
Conditions	vapor or sublimation pressure [kPa]
319.82 K	0.06 ± 0.01
324.46 K	0.09 ± 0.01
333.93 K	0.21 ± 0.02
343.23 K	0.38 ± 0.04
343.39 K	0.4 ± 0.1
348.15 K	0.54 ± 0.05
362.32 K	1.36 ± 0.14
390.95 K	6.14 ± 0.61

Cc1ccccc1 [toluene]
Conditions	vapor or sublimation pressure [kPa]
300.89 K	4.47 ± 0.45
305.64 K	5.17 ± 0.52
305.68 K	5.23 ± 0.52
324.21 K	13.4 ± 1.3
